The source of these data is patent US20250197372A1 (priority 2020, published 2025).

What all share (format): biochemical
In test [1] the target is recombinant human GAA (acid alpha-glucosidase) (Homo sapiens, UniProt P10253). Kind of test: Acid alpha-glucosidase (GAA) assay (4-methylumbelliferyl-alpha-D-pyranoside substrate, fluorescence). Here is the method:
Acid alpha-glucosidase (GAA): To analyze inhibitory effects of a test compound, commercially available recombinant human GAA was incubated with multiple dilutions of test compound for 60 minutes at 37° C. 4-methylumbelliferyl-alpha-D-pyranoside was then introduced to the mixture as the substrate. 1,4-methyllumbelliferone is generated, and after an incubation for 20 minutes at 37° C., the reaction was stopped with the stop solution (0.5M glycine 0.3M NaOH pH 10). 1,4-methyllumbelliferone is detected by fluorescence (excitation at 365 nm, emission at 440 nm). Relative fluorescence compared to untreated enzymatic activity and test compound concentration is plotted as a function of percent inhibition. The IC50 is determined using a 4-PL curve fit as the measure of relative inhibitory activity of each test compound (see Table 3).

Test [2] concerns the target rat maltase (partially purified alpha-glucosidase from intestinal rat powder). In words: Intestinal alpha-glucosidase assay, maltose substrate (Glucose GO Kit). The method, then:
(§1) Intestinal alpha-glucosidases (rat maltase and sucrase): Intestinal alpha-glucosidases act upon 1,4-alpha-glucoside bonds, breaking down disaccharides to glucose. To perform this assay, partially purified alpha-glucosidase from intestinal rat powder was incubated for 60 minutes at 37° C. with multiple dilutions of test compounds. Maltose or Sucrose respectively was then introduced as substrate to the mixture and incubated for 30 minutes at 37° C. The reaction was stopped by a 5-minute incubation at 90° C. and the resultant glucose production is detected using Sigma's Glucose GO Kit. Percent inhibition was then plotted as a function of concentration for each test compound. The IC50 was determined using a 4-PL curve fit and serves as the measure of relative inhibition of each test compound (see Table 3).

Test [3] addresses T1, recombinant human GBA (beta-glucocerebrosidase) (Homo sapiens, UniProt P04062).
T1 sequence (P04062 40-536): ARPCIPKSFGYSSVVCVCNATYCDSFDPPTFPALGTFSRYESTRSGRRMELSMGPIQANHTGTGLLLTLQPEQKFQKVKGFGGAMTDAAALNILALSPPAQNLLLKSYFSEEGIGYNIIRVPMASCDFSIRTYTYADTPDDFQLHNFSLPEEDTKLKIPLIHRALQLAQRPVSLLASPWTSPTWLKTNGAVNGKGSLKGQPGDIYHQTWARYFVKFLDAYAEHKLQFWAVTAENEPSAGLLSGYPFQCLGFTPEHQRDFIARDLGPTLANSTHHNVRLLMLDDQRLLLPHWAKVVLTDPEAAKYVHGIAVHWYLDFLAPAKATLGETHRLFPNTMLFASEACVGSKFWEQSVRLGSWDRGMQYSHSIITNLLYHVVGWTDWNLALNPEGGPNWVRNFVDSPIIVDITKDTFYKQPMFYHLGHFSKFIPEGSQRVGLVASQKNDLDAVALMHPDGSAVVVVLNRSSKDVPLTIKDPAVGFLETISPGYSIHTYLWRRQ
In words: Beta-glucocerebrosidase (GBA, glucosylceramidase) assay (4-methylumbelliferyl-beta-D-pyranoside substrate, fluorescence). Here is the method:
Beta-glucocerebrosidase (GBA, also referred to glucosylceramidase): To analyze inhibitory effects of a test compound, commercially available recombinant human GBA was incubated with multiple dilutions of test compound for 60 minutes at 37° C. 4-methylumbelliferyl-beta-D-pyranoside was then introduced to the mixture as substrate. Following incubation for 60 minutes at 37° C., 1,4-methyllumbelliferone was generated, and the reaction was stopped with the stop solution (0.5 M glycine; 0.3 M NaOH, pH 10). 1,4-methyllumbelliferone was detected by fluorescence (excitation at 365 nm, emission at 440 nm). Relative fluorescence compared to untreated enzymatic activity and test compound concentration is then plotted as a function of percent inhibition. The IC50 was determined using a 4-PL curve fit as the measure of relative inhibitory activity of each test compound (see Table 3).

Test [4] deals with T2, recombinant alpha-glucosidase II (murine full-length glucosidase II, alpha and beta subunits, Glu 2) (Mus musculus, UniProt Q8BHN3).
T2 construct: made in house; host or cells: HEK-293T cells transduced with BacMam viruses (75% alpha, 25% beta); protein harvested from culture supernatant
T2 sequence (O08795 15-521): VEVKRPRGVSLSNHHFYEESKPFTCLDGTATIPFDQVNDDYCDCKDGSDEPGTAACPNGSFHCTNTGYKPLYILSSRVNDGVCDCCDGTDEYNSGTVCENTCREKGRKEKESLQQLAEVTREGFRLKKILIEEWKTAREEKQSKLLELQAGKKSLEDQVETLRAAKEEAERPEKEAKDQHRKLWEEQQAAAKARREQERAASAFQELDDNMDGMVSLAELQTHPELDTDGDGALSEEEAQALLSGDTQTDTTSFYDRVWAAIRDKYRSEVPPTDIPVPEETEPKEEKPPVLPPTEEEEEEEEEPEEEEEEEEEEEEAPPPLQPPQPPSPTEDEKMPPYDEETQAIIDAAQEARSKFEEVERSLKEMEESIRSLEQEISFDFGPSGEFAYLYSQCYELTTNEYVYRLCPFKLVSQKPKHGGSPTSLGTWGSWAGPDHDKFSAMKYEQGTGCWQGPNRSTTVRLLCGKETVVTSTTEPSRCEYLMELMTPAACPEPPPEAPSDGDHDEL
T2 sequence (Q8BHN3 33-944): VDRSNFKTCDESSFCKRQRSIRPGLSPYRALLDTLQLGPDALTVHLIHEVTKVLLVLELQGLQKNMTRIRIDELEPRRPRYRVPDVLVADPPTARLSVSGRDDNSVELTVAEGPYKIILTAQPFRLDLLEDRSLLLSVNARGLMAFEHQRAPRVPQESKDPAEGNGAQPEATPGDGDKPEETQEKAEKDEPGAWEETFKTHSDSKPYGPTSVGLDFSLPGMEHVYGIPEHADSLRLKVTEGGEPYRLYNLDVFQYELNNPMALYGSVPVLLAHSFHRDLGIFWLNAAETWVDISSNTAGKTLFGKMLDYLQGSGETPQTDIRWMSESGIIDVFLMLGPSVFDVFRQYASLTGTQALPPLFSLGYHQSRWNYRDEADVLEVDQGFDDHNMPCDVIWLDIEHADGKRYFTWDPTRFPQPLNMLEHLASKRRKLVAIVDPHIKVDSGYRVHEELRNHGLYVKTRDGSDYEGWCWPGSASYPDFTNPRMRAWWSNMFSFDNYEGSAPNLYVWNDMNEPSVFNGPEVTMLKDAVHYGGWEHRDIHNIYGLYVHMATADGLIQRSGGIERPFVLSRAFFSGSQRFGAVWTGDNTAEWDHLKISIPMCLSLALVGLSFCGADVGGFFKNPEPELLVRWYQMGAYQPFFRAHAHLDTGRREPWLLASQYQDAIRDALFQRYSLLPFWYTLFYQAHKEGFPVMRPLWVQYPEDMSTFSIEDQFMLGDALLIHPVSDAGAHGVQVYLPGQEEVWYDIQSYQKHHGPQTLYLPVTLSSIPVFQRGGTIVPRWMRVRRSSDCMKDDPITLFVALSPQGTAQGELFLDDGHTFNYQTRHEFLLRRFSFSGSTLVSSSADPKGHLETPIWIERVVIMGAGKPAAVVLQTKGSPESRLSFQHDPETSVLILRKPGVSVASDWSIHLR
Kind of test: Alpha-glucosidase II assay (4-methylumbelliferyl-alpha-D-pyranoside substrate, fluorescence).

Test [5] concerns the target rat sucrase (partially purified alpha-glucosidase from intestinal rat powder) (Rattus norvegicus, UniProt P23739). In words: Intestinal alpha-glucosidase assay, sucrose substrate (Glucose GO Kit). The method, then:
as §1

Where [6] appears, read: Glucosidase 2, read-out: Glu2 IC50.

The structures appear in SMILES notation. Read-outs that look alike come from different tables or passages of the source. Some results are limits rather than exact numbers.

For orientation: IC50 means the concentration needed to halve the response being measured.

Sequence of rat sucrase (partially purified alpha-glucosidase from intestinal rat powder) (P23739 whole entry): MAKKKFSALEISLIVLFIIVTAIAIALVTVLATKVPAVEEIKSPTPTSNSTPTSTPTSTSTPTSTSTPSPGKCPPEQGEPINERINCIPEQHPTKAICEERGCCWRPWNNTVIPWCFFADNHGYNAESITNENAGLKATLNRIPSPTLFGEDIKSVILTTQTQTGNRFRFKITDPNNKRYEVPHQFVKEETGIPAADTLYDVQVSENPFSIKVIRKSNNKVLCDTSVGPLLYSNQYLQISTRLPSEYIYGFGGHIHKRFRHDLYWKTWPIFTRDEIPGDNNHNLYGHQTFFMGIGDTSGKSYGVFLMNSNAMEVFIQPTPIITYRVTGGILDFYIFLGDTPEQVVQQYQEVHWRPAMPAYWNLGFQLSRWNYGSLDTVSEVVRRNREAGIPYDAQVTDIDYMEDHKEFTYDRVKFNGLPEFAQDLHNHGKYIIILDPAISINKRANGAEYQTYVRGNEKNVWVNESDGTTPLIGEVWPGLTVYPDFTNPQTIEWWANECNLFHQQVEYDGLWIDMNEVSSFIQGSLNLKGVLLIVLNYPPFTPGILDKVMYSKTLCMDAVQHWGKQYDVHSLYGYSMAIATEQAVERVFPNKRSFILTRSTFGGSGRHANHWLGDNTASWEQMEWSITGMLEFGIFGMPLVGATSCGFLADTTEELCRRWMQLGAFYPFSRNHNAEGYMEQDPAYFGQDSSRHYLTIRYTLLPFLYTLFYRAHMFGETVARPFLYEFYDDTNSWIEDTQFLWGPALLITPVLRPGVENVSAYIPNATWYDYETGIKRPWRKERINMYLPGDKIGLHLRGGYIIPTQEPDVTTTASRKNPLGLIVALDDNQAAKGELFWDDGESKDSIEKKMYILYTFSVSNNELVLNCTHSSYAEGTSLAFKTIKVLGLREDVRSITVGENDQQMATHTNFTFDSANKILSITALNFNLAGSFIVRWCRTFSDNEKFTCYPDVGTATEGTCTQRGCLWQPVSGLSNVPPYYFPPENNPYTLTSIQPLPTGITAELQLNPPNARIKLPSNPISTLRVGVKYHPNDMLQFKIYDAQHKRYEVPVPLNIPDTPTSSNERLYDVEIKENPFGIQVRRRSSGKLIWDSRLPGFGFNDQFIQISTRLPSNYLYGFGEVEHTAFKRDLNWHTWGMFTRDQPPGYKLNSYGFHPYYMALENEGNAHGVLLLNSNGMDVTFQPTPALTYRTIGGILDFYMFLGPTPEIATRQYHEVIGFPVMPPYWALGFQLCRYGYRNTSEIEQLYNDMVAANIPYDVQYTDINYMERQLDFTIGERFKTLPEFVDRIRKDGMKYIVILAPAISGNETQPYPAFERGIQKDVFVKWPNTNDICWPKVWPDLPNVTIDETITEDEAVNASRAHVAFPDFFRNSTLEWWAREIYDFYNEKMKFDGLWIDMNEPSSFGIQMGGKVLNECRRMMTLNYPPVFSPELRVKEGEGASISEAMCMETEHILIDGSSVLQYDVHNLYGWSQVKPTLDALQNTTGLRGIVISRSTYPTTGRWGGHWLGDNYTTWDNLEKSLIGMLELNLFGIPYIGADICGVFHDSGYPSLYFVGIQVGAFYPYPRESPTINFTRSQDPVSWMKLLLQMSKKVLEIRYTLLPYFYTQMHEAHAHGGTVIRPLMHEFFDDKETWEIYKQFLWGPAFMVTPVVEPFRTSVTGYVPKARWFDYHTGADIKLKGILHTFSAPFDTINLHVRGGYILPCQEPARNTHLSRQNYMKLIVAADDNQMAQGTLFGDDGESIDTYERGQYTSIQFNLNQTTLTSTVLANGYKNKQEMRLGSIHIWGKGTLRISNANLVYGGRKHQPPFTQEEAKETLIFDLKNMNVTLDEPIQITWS

In the case of `O=[N+]([O-])c1cc(N2C3CCC2COC3)ccc1NCc1ccc(CN2CC(O)C(O)C(O)C2CO)cc1` (stereo in doubt) [Compound 1018, (2S,3S,4S,5R)-2-(hydroxymethyl)-1-({4-[({2-nitro-4-[(1R,5S)-3-oxa-8-azabicyclo[3.2.1]octan-8-yl]phenyl}amino)methyl]phenyl}methyl) piperidine-3,4,5-triol], the IC50 was 44 nM in test [1]; below 1 nM in test [2]; above 100000 nM in test [3]; below 1 nM in test [4]; below 1 nM in test [5].

Regarding `[N-]=[N+]=Nc1ccc(NCCc2ccc(CCN3C[C@@H](O)[C@H](O)[C@@H](O)[C@@H]3CO)c3ccccc23)c([N+](=O)[O-])c1` (stereo in doubt) [Compound 1178, (2S,3S,4S,5R)-1-[2-(4-{2-[(4-azido-2-nitrophenyl)amino]ethyl}naphthalen-1-yl)ethyl]-2-(hydroxymethyl)piperidine-3,4,5-triol], the IC50 worked out at 5930 nM in test [1]; 3480 nM in test [2]; 5900 nM in test [3]; 9360 nM in test [4] (setting [6]); 71500 nM in test [5].

Consider `OC[C@@H]1[C@@H](O)[C@H](O)[C@@H](O)CN1CCCCCCNc1cc(-c2cccnn2)cc(C2CC2)c1` [Compound 1008, (2R,3R,4R,5S)-1-(6-{[3-cyclopropyl-5-(pyridazin-3-yl)phenyl]amino}hexyl)-2-(hydroxymethyl)piperidine-3,4,5-triol], for which the IC50 is 64 nM in test [1]; 6 nM in test [2]; 2330 nM in test [3]; 12 nM in test [4] (setting [6]); 78 nM in test [5].

As for `OC[C@@H]1[C@@H](O)[C@H](O)[C@@H](O)CN1CCCCCCNc1cc(-c2ncccn2)cc(C2CC2)c1` [Compound 1009, (2R,3R,4R,5S)-1-(6-{[3-cyclopropyl-5-(pyrimidin-2-yl)phenyl]amino}hexyl)-2-(hydroxymethyl)piperidine-3,4,5-triol], the IC50 was determined as 62 nM in test [1]; 7 nM in test [2]; 2590 nM in test [3]; 17 nM in test [4] (setting [6]); 71 nM in test [5].

On to `OC[C@@H]1[C@@H](O)[C@H](O)[C@@H](O)CN1Cc1ccc(CNc2cc(C3CC3)cc(N3CCOCC3)c2)cc1` [Compound 1010, (2R,3R,4R,5S)-1-{[4-({[3-cyclopropyl-5-(morpholin-4-yl)phenyl]amino}methyl)phenyl]methyl}-2-(hydroxymethyl)piperidine-3,4,5-triol], for which the IC50 in test [1] is 359 nM; in test [2], 12 nM; in test [3], above 100000 nM; in test [4] (setting [6]), 1070 nM; in test [5], 96 nM.

On to `OC[C@@H]1[C@@H](O)[C@H](O)[C@@H](O)CN1Cc1ccc(CNc2cc(-c3cccnn3)cc(C3CC3)c2)cc1` [Compound 1012, (2R,3R,4R,5S)-1-{[4-({[3-cyclopropyl-5-(pyridazin-3-yl)phenyl]amino}methyl)phenyl]methyl}-2-(hydroxymethyl)piperidine-3,4,5-triol], for which the IC50 amounted to 350 nM in test [1]; 9 nM in test [2]; 32300 nM in test [3]; 1320 nM in test [4] (setting [6]); 33 nM in test [5].

Turning to `OC[C@@H]1[C@@H](O)[C@H](O)[C@@H](O)CN1Cc1ccc(CNc2cc(-c3ncccn3)cc(C3CC3)c2)cc1` [Compound 1013, (2R,3R,4R,5S)-1-{[4-({[3-cyclopropyl-5-(pyrimidin-2-yl)phenyl]amino}methyl)phenyl]methyl}-2-(hydroxymethyl)piperidine-3,4,5-triol], the IC50 in test [1] was 254 nM; in test [2] it was 5 nM; in test [3], above 100000 nM; in test [4] (setting [6]), 153 nM; in test [5], 26 nM.

With `C[C@@H]1CN(c2ccc(NCc3ccc(CN4C[C@H](O)[C@@H](O)[C@H](O)[C@H]4CO)cc3)c([N+](=O)[O-])c2)C[C@H](C)O1` [Compound 1014], the IC50 in test [1] was 30 nM; in test [2] it was 6 nM; in test [3], above 100000 nM; in test [4] (setting [6]), 4 nM; in test [5], 15 nM.

As to `CS(=O)(=O)c1cc(Br)cc(NCc2cccc(CN3C[C@H](O)[C@@H](O)[C@H](O)[C@H]3CO)c2)c1` [Compound 1022, (2R,3R,4R,5S)-1-[(3-{[(3-bromo-5-methanesulfonylphenyl)amino]methyl}phenyl)methyl]-2-(hydroxymethyl)piperidine-3,4,5-triol], the IC50 in test [1] came out at 803 nM; in test [2], 28 nM; in test [3] it was 90400 nM; in test [4] (setting [6]), 7920 nM; in test [5], 26 nM.

With `Cc1cc(NCc2cccc(CN3C[C@H](O)[C@@H](O)[C@H](O)[C@H]3CO)c2)cc(-c2ncccn2)c1` [Compound 1035, (2R,3R,4R,5S)-2-(hydroxymethyl)-1-{[3-({[3-methyl-5-(pyrimidin-2-yl)phenyl]amino}methyl)phenyl]methyl}piperidine-3,4,5-triol], the IC50 was 5100 nM in test [1]; 49 nM in test [2]; above 100000 nM in test [3]; 66500 nM in test [4] (setting [6]); 51 nM in test [5].

In the case of `CS(=O)(=O)c1cc(NCc2cccc(CN3C[C@H](O)[C@@H](O)[C@H](O)[C@H]3CO)c2)cc(-c2cccnn2)c1` [Compound 1040, (2R,3R,4R,5S)-2-(hydroxymethyl)-1-{[3-({[3-methanesulfonyl-5-(pyridazin-3-yl)phenyl]amino}methyl)phenyl]methyl}piperidine-3,4,5-triol], the IC50 in test [1] is 1300 nM; in test [2], 38 nM; in test [3] it was above 100000 nM; in test [4], 4610 nM; in test [5] it was 126 nM.

For `CS(=O)(=O)c1cc(NCc2cccc(CN3C[C@H](O)[C@@H](O)[C@H](O)[C@H]3CO)c2)cc(-c2ncccn2)c1` [Compound 1041, (2R,3R,4R,5S)-2-(hydroxymethyl)-1-{[3-({[3-methanesulfonyl-5-(pyrimidin-2-yl)phenyl]amino}methyl)phenyl]methyl}piperidine-3,4,5-triol], the IC50 was 1880 nM in test [1]; 79 nM in test [2]; above 100000 nM in test [3]; 7180 nM in test [4] (setting [6]); 187 nM in test [5].

As to `N#Cc1cc(NCc2cccc(CN3C[C@H](O)[C@@H](O)[C@H](O)[C@H]3CO)c2)cc(C2=COCCO2)c1` [Compound 1044, 3-(5,6-dihydro-1,4-dioxin-2-yl)-5-{[(3-{[(2R,3R,4R,5S)-3,4,5-trihydroxy-2-(hydroxymethyl)piperidin-1-yl]methyl}phenyl)methyl]amino}benzonitrile], the IC50 in test [1] was 1420 nM; in test [2], below 1 nM; in test [3] it was 53200 nM; in test [4] (setting [6]) it was 2670 nM; in test [5], below 1 nM.

In the case of `OC[C@@H]1[C@@H](O)[C@H](O)[C@@H](O)CN1CCc1ccc(CCNc2cc(Cl)cc(C3=CCOCC3)c2)cc1` [Compound 1160, (2R,3R,4R,5S)-1-{2-[4-(2-{[3-chloro-5-(3,6-dihydro-2H-pyran-4-yl)phenyl]amino}ethyl)phenyl]ethyl}-2-(hydroxymethyl)piperidine-3,4,5-triol], the half-maximal inhibitory concentration (IC50) in test [1] is 24 nM; in test [2], 75 nM; in test [3] it was 1860 nM; in test [5], 931 nM.
